What all share (experiment): biochemical
Common to all, as to design: KINOMEscan (DiscoverX) competition binding screen of 97 human kinases, percent of control at 10 uM

The target of one experiment is ROCK2 (Homo sapiens, UniProt O75116). The method, then: (§1) The KINOMEscan profiling of the inhibitors were performed as per directions by the manufacturer (DiscoverX) against a panel of human protein kinases.
A further experiment addresses BMPR2 (Homo sapiens, UniProt Q13873). The method, then: as §1
A further experiment addresses MAPKAPK2 (Homo sapiens, UniProt P49137). The method, then: as §1
Experiment [1] deals with T1, JAK3(JH1domain-catalytic) (Homo sapiens, UniProt P52333).
T1 construct: JH1domain-catalytic
The method, then:
as §1

For the next experiment, the target named is RAF1 (Homo sapiens, UniProt P04049). The method, then: as §1
Sequence of RAF1 (P04049 whole entry): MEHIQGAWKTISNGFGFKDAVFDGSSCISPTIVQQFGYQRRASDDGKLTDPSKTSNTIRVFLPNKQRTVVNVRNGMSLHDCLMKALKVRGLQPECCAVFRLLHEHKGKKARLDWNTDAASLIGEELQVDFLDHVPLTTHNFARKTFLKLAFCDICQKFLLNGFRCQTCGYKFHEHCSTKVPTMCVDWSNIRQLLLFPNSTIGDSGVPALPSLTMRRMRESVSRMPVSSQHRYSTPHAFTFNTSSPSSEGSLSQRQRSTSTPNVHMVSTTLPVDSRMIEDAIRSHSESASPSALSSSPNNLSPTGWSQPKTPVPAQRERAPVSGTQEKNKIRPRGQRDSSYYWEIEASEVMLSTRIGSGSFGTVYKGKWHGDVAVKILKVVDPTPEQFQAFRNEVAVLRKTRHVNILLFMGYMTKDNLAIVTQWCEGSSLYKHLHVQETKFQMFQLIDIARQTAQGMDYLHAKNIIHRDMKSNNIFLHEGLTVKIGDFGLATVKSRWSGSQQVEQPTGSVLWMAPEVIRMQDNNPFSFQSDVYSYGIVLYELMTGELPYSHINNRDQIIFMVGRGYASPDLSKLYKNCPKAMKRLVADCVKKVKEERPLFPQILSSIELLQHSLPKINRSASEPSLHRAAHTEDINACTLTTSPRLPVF
The target in another experiment is T2, p38-beta (Homo sapiens, UniProt Q15759).
T2 construct: gene MAPK11
T2 sequence (Q15759 whole entry): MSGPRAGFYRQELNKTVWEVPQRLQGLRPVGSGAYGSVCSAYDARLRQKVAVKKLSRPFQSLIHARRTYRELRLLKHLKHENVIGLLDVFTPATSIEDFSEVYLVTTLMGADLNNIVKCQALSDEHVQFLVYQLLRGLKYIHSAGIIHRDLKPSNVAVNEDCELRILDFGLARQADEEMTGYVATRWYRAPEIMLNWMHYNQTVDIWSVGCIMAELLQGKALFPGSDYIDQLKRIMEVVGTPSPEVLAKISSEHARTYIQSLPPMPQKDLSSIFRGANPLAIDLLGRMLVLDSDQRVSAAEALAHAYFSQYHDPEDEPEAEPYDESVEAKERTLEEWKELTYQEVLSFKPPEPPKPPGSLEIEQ
The method, then: as §1

The target of the next experiment is T3, DCAMKL1 (Homo sapiens, UniProt O15075).
T3 construct: gene DCLK1
As to the method: as §1

In a further experiment the target is T4, LKB1 (Homo sapiens, UniProt Q15831).
T4 construct: gene STK11
The method, then: as §1

Another experiment deals with CDK2 (Homo sapiens, UniProt P24941). The method, then: as §1
Another experiment concerns the target IGF1R (Homo sapiens, UniProt P08069). The method, then:
as §1

Another experiment concerns the target SRC (Homo sapiens, UniProt P12931). As to the method: as §1
The next experiment has as its target T5, MEK1 (Homo sapiens, UniProt Q02750).
T5 construct: gene MAP2K1
The method, then:
as §1

Experiment [2] addresses T6, ABL1(T315I)-phosphorylated (Homo sapiens, UniProt P00519, T315I).
T6 construct: phosphorylated
As to the method: as §1

A further experiment has as its target SRPK3 (Homo sapiens, UniProt Q9UPE1). The method, then: as §1
In the next experiment the target is PIK3CG (Homo sapiens, UniProt P48736). As to the method:
as §1

The next experiment deals with CSNK1G2 (Homo sapiens, UniProt P78368). The method, then: as §1
Sequence of CSNK1G2 (P78368 whole entry): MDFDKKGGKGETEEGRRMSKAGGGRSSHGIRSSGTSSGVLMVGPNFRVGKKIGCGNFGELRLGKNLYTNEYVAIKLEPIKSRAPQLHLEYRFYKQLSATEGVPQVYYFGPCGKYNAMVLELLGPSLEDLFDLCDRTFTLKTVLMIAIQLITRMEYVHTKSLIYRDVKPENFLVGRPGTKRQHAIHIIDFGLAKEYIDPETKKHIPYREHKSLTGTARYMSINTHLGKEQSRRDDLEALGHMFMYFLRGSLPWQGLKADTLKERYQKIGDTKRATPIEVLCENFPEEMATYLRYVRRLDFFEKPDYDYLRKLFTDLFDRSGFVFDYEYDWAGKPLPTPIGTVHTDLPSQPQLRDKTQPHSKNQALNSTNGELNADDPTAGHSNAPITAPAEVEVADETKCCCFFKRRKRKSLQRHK
The target in the next experiment is T7, MLK1 (Homo sapiens, UniProt P80192).
T7 construct: gene MAP3K9
T7 sequence (P80192 whole entry): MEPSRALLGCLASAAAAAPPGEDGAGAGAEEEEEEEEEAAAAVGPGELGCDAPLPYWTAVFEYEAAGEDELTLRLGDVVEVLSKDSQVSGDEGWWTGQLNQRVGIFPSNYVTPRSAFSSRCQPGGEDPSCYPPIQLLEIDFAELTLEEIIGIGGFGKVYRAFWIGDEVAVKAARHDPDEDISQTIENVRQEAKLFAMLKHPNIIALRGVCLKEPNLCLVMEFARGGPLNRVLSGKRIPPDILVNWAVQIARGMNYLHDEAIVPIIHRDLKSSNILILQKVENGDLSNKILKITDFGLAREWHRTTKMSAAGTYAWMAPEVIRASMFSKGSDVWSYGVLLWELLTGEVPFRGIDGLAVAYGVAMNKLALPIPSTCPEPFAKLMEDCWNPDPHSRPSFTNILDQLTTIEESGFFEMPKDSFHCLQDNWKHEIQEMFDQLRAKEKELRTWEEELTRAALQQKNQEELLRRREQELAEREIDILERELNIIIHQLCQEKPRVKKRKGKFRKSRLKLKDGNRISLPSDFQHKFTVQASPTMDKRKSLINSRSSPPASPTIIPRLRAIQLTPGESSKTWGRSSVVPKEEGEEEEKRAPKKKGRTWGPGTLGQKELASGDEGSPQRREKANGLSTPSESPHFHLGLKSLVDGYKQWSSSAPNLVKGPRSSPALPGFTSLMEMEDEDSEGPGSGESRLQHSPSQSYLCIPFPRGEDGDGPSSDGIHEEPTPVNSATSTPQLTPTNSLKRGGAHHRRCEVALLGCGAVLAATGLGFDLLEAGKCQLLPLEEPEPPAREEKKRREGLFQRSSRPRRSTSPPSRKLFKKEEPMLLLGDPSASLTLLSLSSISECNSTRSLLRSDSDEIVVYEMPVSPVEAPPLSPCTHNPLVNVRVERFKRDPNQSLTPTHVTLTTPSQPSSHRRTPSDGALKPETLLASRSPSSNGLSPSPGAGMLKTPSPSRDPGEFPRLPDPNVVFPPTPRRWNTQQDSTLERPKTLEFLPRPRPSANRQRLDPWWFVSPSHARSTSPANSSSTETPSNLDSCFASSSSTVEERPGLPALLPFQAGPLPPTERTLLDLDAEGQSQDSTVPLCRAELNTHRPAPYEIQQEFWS
The method, then: as §1

The target of a further experiment is T8, JNK1 (Homo sapiens, UniProt P45983).
T8 construct: gene MAPK8
T8 sequence (P45983 whole entry): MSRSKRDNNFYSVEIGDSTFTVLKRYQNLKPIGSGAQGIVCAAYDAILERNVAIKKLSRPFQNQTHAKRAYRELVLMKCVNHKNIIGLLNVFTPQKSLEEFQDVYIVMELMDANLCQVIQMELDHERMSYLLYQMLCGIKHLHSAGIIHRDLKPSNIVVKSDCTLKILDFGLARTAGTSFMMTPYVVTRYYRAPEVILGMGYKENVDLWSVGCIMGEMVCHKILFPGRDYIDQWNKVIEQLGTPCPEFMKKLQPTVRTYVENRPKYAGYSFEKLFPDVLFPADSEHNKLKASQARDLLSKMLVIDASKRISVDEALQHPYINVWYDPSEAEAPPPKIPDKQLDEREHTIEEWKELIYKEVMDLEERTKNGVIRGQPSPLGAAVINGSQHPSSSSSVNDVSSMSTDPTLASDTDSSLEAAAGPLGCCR
As to the method:
as §1

The target of the next experiment is T9, ADCK3 (Homo sapiens, UniProt Q8NI60).
T9 construct: gene COQ8A
The method, then:
as §1

The next experiment addresses T10, JNK3 (Homo sapiens, UniProt P53779).
T10 construct: gene MAPK10
As to the method: as §1

For the next experiment, the target named is DYRK1B (Homo sapiens, UniProt Q9Y463). Particulars: binding competition, % of control. The method, then: as §1
Sequence of DYRK1B (Q9Y463 whole entry): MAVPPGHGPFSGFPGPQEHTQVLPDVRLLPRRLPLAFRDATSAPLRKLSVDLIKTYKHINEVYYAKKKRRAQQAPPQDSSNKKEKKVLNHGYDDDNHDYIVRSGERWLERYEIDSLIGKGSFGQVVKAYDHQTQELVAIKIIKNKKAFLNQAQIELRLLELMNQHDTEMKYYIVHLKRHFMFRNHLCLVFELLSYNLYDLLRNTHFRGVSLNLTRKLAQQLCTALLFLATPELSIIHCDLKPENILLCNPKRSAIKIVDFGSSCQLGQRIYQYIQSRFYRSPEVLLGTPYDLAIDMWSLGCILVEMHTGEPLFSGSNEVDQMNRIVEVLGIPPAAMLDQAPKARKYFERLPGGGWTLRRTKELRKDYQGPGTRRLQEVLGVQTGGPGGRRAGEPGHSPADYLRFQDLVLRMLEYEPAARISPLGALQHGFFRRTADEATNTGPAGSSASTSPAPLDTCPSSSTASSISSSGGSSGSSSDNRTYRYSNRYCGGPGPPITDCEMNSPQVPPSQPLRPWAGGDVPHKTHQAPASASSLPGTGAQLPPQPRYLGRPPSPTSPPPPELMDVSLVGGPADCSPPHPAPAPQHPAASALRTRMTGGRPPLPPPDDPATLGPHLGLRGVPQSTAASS
In a further experiment the target is RIOK2 (Homo sapiens, UniProt Q9BVS4). As to the method: as §1
The target in a further experiment is CDK7 (Homo sapiens, UniProt P50613). The method, then:
as §1

Setting [3] is: binding competition, % of control, read-out: RU-301 %Ctrl @ 10000nM.
Where [4] appears, read: read-out: R428 %Ctrl @ 10000nM, binding competition.

Where two headings read alike, the source gives them in different places.

Sequence of SRPK3 (Q9UPE1 whole entry): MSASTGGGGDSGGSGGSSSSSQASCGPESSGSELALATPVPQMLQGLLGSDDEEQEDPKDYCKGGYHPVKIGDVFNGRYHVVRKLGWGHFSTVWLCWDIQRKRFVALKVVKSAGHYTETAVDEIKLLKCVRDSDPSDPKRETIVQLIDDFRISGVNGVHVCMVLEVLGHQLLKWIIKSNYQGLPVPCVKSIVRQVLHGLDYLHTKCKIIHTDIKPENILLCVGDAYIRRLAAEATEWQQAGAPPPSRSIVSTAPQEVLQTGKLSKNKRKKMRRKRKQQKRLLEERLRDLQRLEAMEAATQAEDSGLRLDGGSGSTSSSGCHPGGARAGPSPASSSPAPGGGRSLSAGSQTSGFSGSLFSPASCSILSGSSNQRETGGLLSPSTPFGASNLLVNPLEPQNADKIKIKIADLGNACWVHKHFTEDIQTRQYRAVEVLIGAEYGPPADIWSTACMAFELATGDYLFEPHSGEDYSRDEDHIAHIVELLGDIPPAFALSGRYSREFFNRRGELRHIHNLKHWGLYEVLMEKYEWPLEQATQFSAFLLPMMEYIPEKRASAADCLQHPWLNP
Sequence of MAPKAPK2 (P49137 whole entry): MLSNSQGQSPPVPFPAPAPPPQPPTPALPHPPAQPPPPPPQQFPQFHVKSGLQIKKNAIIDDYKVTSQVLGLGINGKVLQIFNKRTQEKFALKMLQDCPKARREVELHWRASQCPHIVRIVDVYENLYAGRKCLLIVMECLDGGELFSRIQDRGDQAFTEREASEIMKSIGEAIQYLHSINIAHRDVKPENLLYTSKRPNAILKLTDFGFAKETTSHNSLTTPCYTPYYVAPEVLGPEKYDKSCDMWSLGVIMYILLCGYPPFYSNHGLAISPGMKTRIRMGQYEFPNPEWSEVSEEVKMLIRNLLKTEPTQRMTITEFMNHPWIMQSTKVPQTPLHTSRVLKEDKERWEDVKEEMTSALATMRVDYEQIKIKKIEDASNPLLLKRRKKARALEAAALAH
Sequence of CDK7 (P50613 whole entry): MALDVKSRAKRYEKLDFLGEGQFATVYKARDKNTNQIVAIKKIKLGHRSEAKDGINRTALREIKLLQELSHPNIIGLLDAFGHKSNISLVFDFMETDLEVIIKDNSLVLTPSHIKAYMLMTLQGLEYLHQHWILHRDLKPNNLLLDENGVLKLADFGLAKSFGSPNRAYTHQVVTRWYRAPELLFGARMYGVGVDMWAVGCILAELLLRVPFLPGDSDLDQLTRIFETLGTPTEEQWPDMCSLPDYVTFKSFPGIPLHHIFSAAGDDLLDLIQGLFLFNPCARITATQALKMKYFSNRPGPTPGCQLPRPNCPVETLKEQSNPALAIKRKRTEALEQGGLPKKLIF

For the molecule `Cc1cc(CSc2ccccc2C(=O)NCCNc2ccc(C(F)(F)F)cc2[N+](=O)[O-])on1` [RU-301], the remaining binding at 10 µM at ROCK2 (setting [3]) came out at 75%; at BMPR2 (setting [3]), 78%; at MAPKAPK2 (setting [3]), 100%; in experiment [1] (setting [3]), 95%; at RAF1 (setting [3]), 84%; at p38-beta (setting [3]), 100%. Further, the remaining binding at 10 µM at DCAMKL1 (setting [3]) came to 81%; on LKB1 (setting [3]), 77%; at CDK2 (setting [3]), 100%; on IGF1R (setting [3]), 98%; on SRC (setting [3]), 96%; on MEK1 (setting [3]), 75%. Also, the remaining binding at 10 µM is 100% in experiment [2] (setting [3]); 80% at SRPK3 (setting [3]); 100% at PIK3CG (setting [3]); 100% on CSNK1G2 (setting [3]); 100% at MLK1 (setting [3]); 91% on JNK1 (setting [3]). For the same molecule, the remaining binding at 10 µM on ADCK3 (setting [3]) was found to be 76%; on JNK3 (setting [3]), 100%; at DYRK1B (read-out: RU-301 %Ctrl @ 10000nM) it was 100%; on RIOK2 (setting [3]), 100%; on CDK7 (setting [3]), 85%.
`Nc1nc(Nc2ccc3c(c2)CC[C@@H](N2CCCC2)CC3)nn1-c1cc2c(nn1)-c1ccccc1CCC2` [R428]: the percent of control binding at 10 µM came out at 3% on ROCK2 (setting [4]); 23% on BMPR2 (setting [4]); 87% at MAPKAPK2 (setting [4]); 0.2% in experiment [1] (setting [4]); 100% on RAF1 (setting [4]); 84% at p38-beta (setting [4]). For the same molecule, the percent of control binding at 10 µM came to 98% at DCAMKL1 (setting [4]); 60% on LKB1 (setting [4]); 71% at CDK2 (setting [4]); 99% at IGF1R (setting [4]); 14% on SRC (setting [4]); 3% on MEK1 (setting [4]). The percent of control binding at 10 µM in experiment [2] (setting [4]) turned out to be 0.9%; at SRPK3 (setting [4]) it was 3.8%; at PIK3CG (setting [4]), 21%; at CSNK1G2 (setting [4]) it was 4.6%; on MLK1 (setting [4]), 2.2%; on JNK1 (setting [4]), 14%. In addition, the percent of control binding at 10 µM came to 18% at ADCK3 (setting [4]), 46% at JNK3 (setting [4]), 94% on RIOK2 (setting [4]) and 23% at CDK7 (setting [4]). Further, the remaining binding at 10 µM at DYRK1B (read-out: R428 %Ctrl @ 10000nM) is 46%.

The record behind these values is publication PMC5341070, “Small molecule inhibitors block Gas6-inducible TAM activation and tumorigenicity” (Scientific Reports, 2017).
